In US20230181608A1, “NUTRIENT COMPOSITION, FOOD INCLUDING THE SAME AND USE OF THE NUTRIENT COMPOSITION” (Heilongjiang Feihe Dairy Co., Ltd., priority 2021, published 2023):

Tests used:
Assay type in all cases: cell-based, newborn rats and mice
[1] = tested on: oligodendrocyte precursor cells (MAG positive cells); assay: number of MAG positive cells after 18 DIVs (OPC differentiation/myelination), primary mixed culture of neurons and OL; settings: for effect on the number of MAG positive cells (myelination of oligodendrocyte precursor cells), in words: in comparison with the blank control group / with the components alone
Description: (§1) All experiments were approved by ethics, and the primary mixed culture of neurons and OL were carried out according to the following steps. Briefly, the forebrain of newborn rats and mice were dissociated with trypsin (Trypsin EDTA 1X, PAN BIOTECH) at 37° C. for 20 minutes. After addition of Dulbecco modified Eagle medium (DMEM, PAN BIOTECH) containing DNAase I Grade II (0.1 mg/ml, PAN BIOTECH) and 10% fetal bovine serum (FCS, GIBCO), the reaction was stopped. The cells were mechanically separated three times through a 10 ml pipette, and then centrifuged at 4° C. under 515 g for 10 minutes.
(§2) Living cells were inoculated in 96-well plates (20000/well), which were pre-coated with poly-L-lysine (BD Falcon) and laminin (Sigma). The culture medium consists of Neurobasal (GIBCO) added with 2% B27 (GIBCO), 2 mM L-glutamine (L Glu, PAN BIOTECH), 2% P/S solution (PAN BIOTECH), 1% FCS and 10 ng/ml platelet-derived growth factor (PDGF-AA, PAN BIOTECH). The 96-well plates are stored in a humidified incubator, at a temperature of 37° C. and with an environment of air (95%) - CO2 (5%).
(§3) A same number of cells were placed on 48-well plates, and then incubated for 12, 18 or 30 DIVs. Half of the medium were replaced every other day. A mixture or separate nutrition were added to the fresh medium (the nutrient composition prepared above, containing 2′-FL, choline and/or milk fat global membrane).
(§4) After 12, 18 and 30 DIVs, the cells were fixed with a cold mixture of 95% ethanol and acetic acid (5%) for 5 minutes. The non-specific sites were then blocked for 15 minutes at room temperature with a phosphate buffered saline (PBS) solution containing 0.1% saponin (Sigma) and 1% FCS (GIBCO).
At 18 DIVs, nerve cells were co-incubated with mouse monoclonal antibody MAG (dilution: 1/400, Millipore, MAB1567) and neurofilament protein antibody (dilution: 1/500, Sigma, N4142) for 2 h. Then a secondary goat […] antibody (dilution: 1/400, Sigma, SAB4600042) and a secondary goat anti-rabbit antibody (dilution: 1/400, SIGMA, SAB4600084) were used to co-incubate at room temperature for 1 h.
(§5) ImageXpress equipped with LED lights (360/480/565 for excitation and 460/535/620 for emission) is used for 20× amplification. All images are acquired using the same settings.
The differentiation of OPC into OL was evaluated by counting the number of MAG positive cells in cell culture. The results were expressed as the average number of cells per image and per well. The morphological maturity of MAG positive cells were assessed by measuring the average surface area of MAG positive cells in 18 DIV wells ([…]/image/well).
(§6) Cells were inoculated on a 96-well plate and cultured for a certain period of time. Half of the culture medium was replaced every other day. Varying concentrations of mixed or separate 2′-FL mixtures were added to the special culture medium for fresh primary cells (added on day 12, 18 and 30, respectively). 6 replicas for each sample. […] The blank control group, positive control group and sample intervention group were compared, respectively. The effects of milk fat global membrane, 2′-FL and choline, alone or in mixture, on OPC population, OL maturation and differentiation, myelin formation and neurite growth was determined by immunohistochemistry (MBP, NF, A2B5). See Table 2 below for specific experimental dosage.
In order to measure the effect of mixed nutrition or single nutrition treatment on OPC cell myelination, we evaluated the number of positive cells labelled MAG after 18 DIVs.

[2] = tested on: oligodendrocyte precursor cells (A2B5 positive cells); assay: number of A2B5 positive cells (number of OPCs) after 12 DIVs, primary mixed culture of neurons and OL; settings: for effect on the number of A2B5 positive cells (proliferation of oligodendrocyte precursor cells), in words: in comparison with the blank control group / with the components alone
Description: All experiments were approved by ethics, and the primary mixed culture of neurons and OL were carried out according to the following steps. Briefly, the forebrain of newborn rats and mice were dissociated with trypsin (Trypsin EDTA 1X, PAN BIOTECH) at 37° C. for 20 minutes. After addition of Dulbecco modified Eagle medium (DMEM, PAN BIOTECH) containing DNAase I Grade II (0.1 mg/ml, PAN BIOTECH) and 10% fetal bovine serum (FCS, GIBCO), the reaction was stopped. The cells were mechanically separated three times through a 10 ml pipette, and then centrifuged at 4° C. under 515 g for 10 minutes. Living cells were inoculated in 96-well plates (20000/well), which were pre-coated with poly-L-lysine (BD Falcon) and laminin (Sigma). The culture medium consists of Neurobasal (GIBCO) added with 2% B27 (GIBCO), 2 mM L-glutamine (L Glu, PAN BIOTECH), 2% P/S solution (PAN BIOTECH), 1% FCS and 10 ng/ml platelet-derived growth factor (PDGF-AA, PAN BIOTECH). The 96-well plates are stored in a humidified incubator, at a temperature of 37° C. and with an environment of air (95%) - CO2 (5%). […] Half of the medium were replaced every other day. A mixture or separate nutrition were added to the fresh medium (the nutrient composition prepared above, containing 2′-FL, choline and/or milk fat global membrane). After 12, 18 and 30 DIVs, the cells were fixed with a cold mixture of 95% ethanol and acetic acid (5%) for 5 minutes. The non-specific sites were then blocked for 15 minutes at room temperature with a phosphate buffered saline (PBS) solution containing 0.1% saponin (Sigma) and 1% FCS (GIBCO). […] Finally, a secondary goat anti-rabbit antibody (diluted 1/400, SIGMA, SAB460084) was used to co-incubate at room temperature for 1 h. ImageXpress equipped with LED lights (360/480/565 for excitation and 460/535/620 for emission) is used for 20× amplification. All images are acquired using the same settings. […] Cells were inoculated on a 96-well plate and cultured for a certain period of time. Half of the culture medium was replaced every other day. […] The blank control group, positive control group and sample intervention group were compared, respectively. […] See Table 2 below for specific experimental dosage.

[3] = tested on: oligodendrocyte precursor cells (MBP positive cells); assay: number of MBP positive cells after 30 DIVs (OPC/OL maturation), primary mixed culture of neurons and OL; settings: for effect on the number of MBP positive cells (maturation of oligodendrocyte precursor cells), in words: in comparison with the blank control group / with the components alone
Description: as §1, §2, §3, §4
At 30 DIVs, nerve cells were co-incubated with mouse monoclonal antibody MBP (dilution: 1/1000, Novus, NBP1-05204) and neurofilament protein antibody (dilution: 1/500, Sigma, N4142) for 2 hours. Then a secondary goat anti-mouse antibody (dilution: 1/800, Sigma, SAB4600042) and a secondary goat anti-rabbit antibody (dilution: 1/400, SIGMA, SAB4600084) were used to co-incubate at room temperature for 1 h.
as §5
At 30 DIVs, the maturity of OL was estimated by calculating the number of MBP positive cells (average number of cells per imge, per well) and the average surface area of MBP positive cells at 30 DIVs ([…], per image, per well).
as §6
In order to measure the effect of mixed nutrition or single nutrition treatment on OPC cell maturation, we evaluated the number of MBP positive cells after 30DIVs.

[4] = high dosage: 2′-FL 20, milk fat globule membrane 55, choline 6.5 mg/ml (those present)
[5] = low dosage: 2′-FL 0.2, milk fat globule membrane 0.55, choline 0.065 mg/ml (those present)
[6] = medium dosage: 2′-FL 2, milk fat globule membrane 5.5, choline 0.65 mg/ml (those present)
[7] = low dosage: milk fat globule membrane 0.55 or choline 0.065 mg/ml

CC1O[C@@H](OC2[C@H](O[C@@H]3C(CO)O[C@H](O)C(O)[C@@H]3O)OC(CO)[C@H](O)[C@H]2O)C(O)[C@H](O)[C@@H]1O (stereo partly drawn) [2′-FL, 2′-fucosyl lactose]
increase of the number of MAG positive cells relative to the blank control group (Cell Experiment Example 1) [1, 4]: 21.33
number of MAG positive cells (mean±standard deviation) [1, 4]: 62.00±4.00
effect on the number of MAG positive cells (myelination of oligodendrocyte precursor cells), in words [1]: could increase the number of MAG positive cells
number of MAG positive cells (mean±standard deviation) [1, 5]: 54.00±6.08
increase of the number of MAG positive cells relative to the blank control group (Cell Experiment Example 1) [1, 6]: 35.66
number of MAG positive cells (mean±standard deviation) [1, 6]: 76.33±4.51
increase of the number of A2B5 positive cells relative to the blank control group (Cell Experiment Example 1) [2, 4]: 18.33
number of A2B5 positive cells (mean±standard deviation) [2, 4]: 135.00±6.08
effect on the number of A2B5 positive cells (proliferation of oligodendrocyte precursor cells), in words [2]: may increase the number of A2B5 positive cells
number of A2B5 positive cells (mean±standard deviation) [2, 5]: 151.33±4.73
increase of the number of A2B5 positive cells relative to the blank control group (Cell Experiment Example 1) [2, 6]: 39.33
number of A2B5 positive cells (mean±standard deviation) [2, 6]: 156.00 ±5.57
increase of the number of MBP positive cells relative to the blank control group (Cell Experiment Example 1) [3, 4]: 20.67
number of MBP positive cells (mean±standard deviation) [3, 4]: 83.00±5.29
effect on the number of MBP positive cells (maturation of oligodendrocyte precursor cells), in words [3]: can increase the number of MBP positive cells
number of MBP positive cells (mean±standard deviation) [3, 5]: 104.00±4.58
increase of the number of MBP positive cells relative to the blank control group (Cell Experiment Example 1) [3, 6]: 42.34
number of MBP positive cells (mean±standard deviation) [3, 6]: 104.67±5.03 * *

CC(C)CCC[C@@H](C)[C@H]1CC[C@H]2[C@@H]3CCC4=CC(=NO)CC[C@]4(C)[C@H]3CC[C@]12C [Olesoxime]
number of MAG positive cells (mean±standard deviation) ([1]; positive control, 300 nM): 87.00±4.36
number of A2B5 positive cells (mean±standard deviation) ([2]; positive control, 300 nM): 171.33±3.51
number of MBP positive cells (mean±standard deviation) ([3]; positive control, 300 nM): 124.00±3.61

C[N+](C)(C)CCO.[Cl-] [choline, choline chloride]
increase of the number of MAG positive cells relative to the blank control group (Cell Experiment Example 1) [1, 4]: 40.66
number of MAG positive cells (mean±standard deviation) [1, 4]: 81.33±3.21
effect on the number of MAG positive cells (myelination of oligodendrocyte precursor cells), in words [1]: could increase the number of MAG positive cells
number of MAG positive cells (mean±standard deviation) [1, 5]: 66.33±6.03
increase of the number of MAG positive cells relative to the blank control group (Cell Experiment Example 1) [1, 7]: 25.66
increase of the number of MAG positive cells relative to the blank control group (Cell Experiment Example 1) [1, 6]: 53.33
number of MAG positive cells (mean±standard deviation) [1, 6]: 94.00±4.58
increase of the number of A2B5 positive cells relative to the blank control group (Cell Experiment Example 1) [2, 4]: -9
number of A2B5 positive cells (mean±standard deviation) [2, 4]: 107.67±6.03
effect on the number of A2B5 positive cells (proliferation of oligodendrocyte precursor cells), in words [2]: may increase the number of A2B5 positive cells
number of A2B5 positive cells (mean±standard deviation) [2, 5]: 167.33±3.51
increase of the number of A2B5 positive cells relative to the blank control group (Cell Experiment Example 1) [2, 7]: 50.66
increase of the number of A2B5 positive cells relative to the blank control group (Cell Experiment Example 1) [2, 6]: 109
number of A2B5 positive cells (mean±standard deviation) [2, 6]: 225.67±5.03
increase of the number of MBP positive cells relative to the blank control group (Cell Experiment Example 1) [3, 4]: 5.67
number of MBP positive cells (mean±standard deviation) [3, 4]: 68.00±2.65
effect on the number of MBP positive cells (maturation of oligodendrocyte precursor cells), in words [3]: can increase the number of MBP positive cells
number of MBP positive cells (mean±standard deviation) [3, 5]: 113.33±5.69
increase of the number of MBP positive cells relative to the blank control group (Cell Experiment Example 1) [3, 7]: 51
increase of the number of MBP positive cells relative to the blank control group (Cell Experiment Example 1) [3, 6]: 71.34
number of MBP positive cells (mean±standard deviation) [3, 6]: 133.67±4.16
